Data from patent publication US12187715B2, “Small molecule activators of Tie-2” (EyePoint Pharmaceuticals, Inc., priority 2019, dated 2025).

System: phospho-Akt1 (pAkt)
Assay: Phospho-Akt activation assay in human umbilical vein endothelial cells (Western blot)
Type: cell-based
Details: for Relative potencies for activation of pAkt: HUVECs, 3, 10 and 30 μM
Description: The ability of the small molecule analogues as shown in EXAMPLES 1-3 to stimulate production of phospho-Akt1 (pAkt) was tested. Akt plays a critical role in controlling cell survival and apoptosis, and Akt phosphorylation is increased by the activation of Tie-2. Akt activation can be detected by an antibody that recognizes phosphorylation on the serine 473 residue on Akt.
HUVECs were seeded at 500,000 cells/mL in chemically-defined basal media, and supplemented with distinct growth factors (EGM-2). The following growth factors were required for survival and normal phenotypic expression of endothelial characteristics: fetal bovine serum 2%, hydrocortisone, human fibroblast growth factor-B, vascular endothelial growth factor, recombinant insulin growth factor R3, ascorbic acid, human epidermal growth factor, gentamicin sulfate, amphotericin B, and heparin. Cells were derived from one donor, cultivated in 10 cm dishes, and expanded upon reaching 90% confluence. After three passages, the cells were expanded and ready for testing.
The cells were seeded at 25,000 cells/mL in 6-well plates, and covered with 2 mL of complete media. The cells were fed on day 2 of culture with 2 mL of fresh EGM-2 media. 72 hours after plating, the cells were serum starved by rinsing twice with 2 mL of sterile phosphate buffered saline, and then placed at 37° C. for 3 hours in the presence of basal EGM-2 media (1.5 mL/well without growth factors). The serum starvation allowed the cells to become quiescent.
Compounds 2-4 were dissolved in distilled deionized water at the following concentrations: • Compound 2 (Molecular weight: 622.7): 31 mg/ml. • Compound 3 (Molecular weight: 622.7): 26 mg/ml. • Compound 4 (Molecular weight: 636.7): 32 mg/ml.
All compounds were stored at 4° C. […] Stock concentrations of the above molecules were made at a final working concentration of 1 mM. Specific microliter volumes of the working concentration were added to each 6 well plate at the following concentrations: 3, 10, and 30 micromolar (μM). Cells were treated for 30 minutes.
10× cell lysis buffer was diluted fresh with dH2O. The 1× cell lysis buffer contained: 20 mM Tris-HCl (pH 7.5), 150 mM NaCl, 1 mM Na2EDTA, 1 mM EGTA, 1% Triton, 2.5 mM sodium pyrophosphate, 1 mM β-glycerophosphate, 1 mM Na3VO4, 1 μg/ml leupeptin, and 1 mM PMSF. Immediately before use, 1 mM PMSF was prepared by diluting from a stock of 1 M PMSF made up in DMSO. In addition, a 1× concentration of a Halt protease & phosphatase inhibitor cocktail was included. At the end of the 30 minute treatment, the media was discarded from the cell culture wells by shaking out, and the remaining media was aspirated off the wells. Ice-cold lysis buffer was added at 140 μL/well, and the culture was placed on ice or in a cold room for 30 minutes while rocking. Cell lysates were collected using a cell scraper, placed in microfuge tubes, and stored at −80° C. The levels of protein were quantitated using a microtiter plate BCA protein assay.
2× Laemmli sample buffer was added in equal volume to the […] cell lysis buffer, which contained the lysed endothelial cells. The solution was heated at 100° C. for 5 minutes and then sonicated for 10 seconds. After sonication, the lysates were spun by centrifuge at 4° C. for 5 minutes at 17,000 rpm. 70-100 μg of protein calculated from BCA assay prior to addition of 2× Laemmli sample were added per well of an 8% polyacrylamide gel.
Electrophoresis was performed at 150 volts for approximately 90 minutes at room temperature with 1× Laemmli running buffer. The proteins from the gel were transferred to nitrocellulose at 100 volts for 45 minutes on ice.
The nitrocellulose membranes were removed quickly without drying and placed in phosphate buffered saline (pH 7.3) with 1% nonfat dried milk. The membranes were blocked in the milk solution while rocking for 2 hours at room temperature or overnight at 4° C. […]

SMILES	Relative potencies for activation of pAkt	pAkt signal above control (HUVECs, 30 μM, 30 minutes treatment)	Levels of pAkt (in words) (HUVECs, sets statement at 30 μM)
COC(=O)N(C)[C@@H](Cc1ccccc1)C(=O)N(C)[C@@H](Cc1ccc(NS(=O)(=O)[O-])cc1)c1csc(-c2cccs2)n1.[Na+] [Compound 4, sodium (4-{(S)-2-{(S)-2-[(methoxycarbonyl)(methyl)amino]-N-methyl-3-phenylpropanamido}-2-[2-(thiophen-2-yl)thiazol-4-yl]ethyl}phenyl)sulfamate]	Compound 2>Compound 4>Compound 3		
COC(=O)N(C)[C@@H](Cc1ccccc1)C(=O)N[C@@H](Cc1ccc(NS(=O)(=O)[O-])cc1)c1csc(-c2cccs2)n1.[Na+] [Compound 2, sodium (4-{(S)-2-{(S)-2-[(methoxycarbonyl)(methyl)amino]-3-phenylpropanamido}-2-[2-(thiophen-2-yl)thiazol-4-yl]ethyl}phenyl)sulfamate]	Compound 2>Compound 4>Compound 3	300%	Noticeable and dose-dependent
